How the values were obtained:
[1] = biological target: T1, human SSAO T1 (Gly27-Asn763), untagged (Homo sapiens, UniProt Q16853); assay: Benzylamine stability in lysate of cells expressing T1 SSAO (untagged), LC/MS/MS; format: in vitro ADME
T1 construct: T1 (Gly27-Asn763) Representing the Enzyme Lacking the Membrane Anchoring Region; additional N-terminal Met (N); expressed in transfected cells; cell lysate
T1 sequence (Q16853 27-763): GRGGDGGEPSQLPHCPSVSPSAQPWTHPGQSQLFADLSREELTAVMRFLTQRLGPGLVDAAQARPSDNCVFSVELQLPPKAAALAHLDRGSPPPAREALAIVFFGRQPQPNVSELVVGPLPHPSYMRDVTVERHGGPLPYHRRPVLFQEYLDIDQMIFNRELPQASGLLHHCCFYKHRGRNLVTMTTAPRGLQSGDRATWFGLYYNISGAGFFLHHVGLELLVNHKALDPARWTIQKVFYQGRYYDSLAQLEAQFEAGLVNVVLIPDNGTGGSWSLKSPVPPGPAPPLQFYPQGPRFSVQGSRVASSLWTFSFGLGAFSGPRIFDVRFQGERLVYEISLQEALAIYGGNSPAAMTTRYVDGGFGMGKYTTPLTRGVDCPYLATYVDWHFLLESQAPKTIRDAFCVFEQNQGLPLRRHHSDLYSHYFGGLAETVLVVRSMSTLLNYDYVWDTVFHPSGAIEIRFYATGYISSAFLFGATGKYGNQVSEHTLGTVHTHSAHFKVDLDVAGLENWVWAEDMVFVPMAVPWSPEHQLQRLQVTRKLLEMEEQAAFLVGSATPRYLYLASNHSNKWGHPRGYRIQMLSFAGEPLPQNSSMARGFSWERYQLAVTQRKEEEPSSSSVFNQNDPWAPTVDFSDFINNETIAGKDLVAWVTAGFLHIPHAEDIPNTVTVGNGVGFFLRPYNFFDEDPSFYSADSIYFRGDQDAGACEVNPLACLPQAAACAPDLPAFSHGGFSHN
Procedure: (§1) 3) T1 (Gly27-Asn763) Representing the Enzyme Lacking the Membrane Anchoring Region:
(§2) The expression constructs were prepared by cloning these PCR products into the pCDNA5-FRT-To-DEST vector (Invitrogen, Gateway System™). The forward and reverse DNA sequence of each construct was confirmed including expressed sequences and at least 100 base pairs either side of this. Stable cell lines for Flp-In CHO, Flp-In CHO T-Rex, and Flp-In HEK 293 (Invitrogen, Flp-In system™) were generated using these 6 constructs according to manufacturer's instructions. Cells were co-transfected with the regulatory vector, pOG44, and each of the pCDNA5-FRT-To-DEST constructs using Lipfectamine (Invitrogen) according to manufacturer's instructions. Thus, 18 cell lines were generated: CHO Flp-In full-length SSAO; CHO Flp-In full-length SSAO with C-terminal 6×HIS tag; CHO Flp-In T1 SSAO; CHO Flp-In T1 SSAO with C-terminal 6×HIS tag; CHO Flp-In T2 SSAO; CHO Flp-In T2 SSAO with C-terminal 6×HIS tag; CHO T-Rex Flp-In full-length SSAO; CHO T-Rex Flp-In full-length SSAO with C-terminal 6×HIS tag; CHO T-Rex Flp-In T1 SSAO; CHO T-Rex Flp-In T1 SSAO with C-terminal 6×HIS tag; CHO T-Rex Flp-In T2 SSAO; CHO Flp-In T2 SSAO with C-terminal 6×HIS tag; HEK 293 Flp-In full-length SSAO; HEK 293 Flp-In full-length SSAO with C-terminal 6×HIS tag; HEK 293 Flp-In T1 SSAO; HEK 293 Flp-In T1 SSAO with C-terminal 6×HIS tag; HEK 293 Flp-In T2 SSAO; HEK 293 Flp-In T2 SSAO with C-terminal 6×HIS tag.
(§3) Adherent CHO cells were cultured at 37° C., 5% CO2 in media containing Ham's F12, 10% fetal bovine serum, 2 mM L-glutamine, 1% Penicillin/Streptomycin, 300 μM hygromycin B. Adherent HEK 293 cells were cultured at 37° C., 5% CO2 in D-MEM (high glucose), 10% fetal bovine serum, 2 mM L-glutamine, and 200 μM hygromycin B. Stable transformants were identified by loss of zeocin resistance. Once the cells were 80% confluent, SSAO expression was induced by the addition of Tetracycline to 1 μg/mL. Following 18 hours, the cells were harvested using a trypsin treatment of 3 minutes, at room temperature. Cells were washed 3 times in phosphate buffered saline before flash freezing in liquid nitrogen.
(§4) For the preparation of cell lysate for activity testing, frozen cell pellets were resuspended in lysate buffer containing 10 mM Tris-HCl (pH 7.2), 150 mM NaCl, 1.5 mM MgCl2, 1% v/v NP-40 and incubated for 15 minutes on ice. Lysate was cleared by centrifugation 800×g for 10 minutes, 4° C. and stored in aliquots at −80° C. until use. Proteins were determined using Pierce Coomassie Protein Reagent, according to manufacturer's instructions.
(§5) For each assay run, 1 mL of cell lysate (1.5 mg/mL protein) was mixed with benzylamine to 2000 ng/mL final concentration. At each corresponding time point, […] the incubation mixture was transferred to a microcentrifuge tube (1.7 mL) and mixed with 50 μL of acetonitrile. The tubes were vortex mixed briefly to ensure complete mixing and then centrifuged at 10,000×g for 5 minutes. The supernatant was removed and 50 μL was transferred to an autosampler vial and mixed with 50 μL of water before LC/MS/MS analysis. Benzylamine remaining in the lysate was analyzed with LC/MS/MS method.
(§6) LC/MS/MS analysis was performed with a PE Sciex API 3000 mass spectrometer under the following conditions listed below and in Tables 1 and 2: […]

[2] = biological target: T2, human SSAO T1 (Gly27-Asn763), C-terminal 6xHIS tag (Homo sapiens, UniProt Q16853); assay: Benzylamine stability in lysate of cells expressing T1 SSAO with C-terminal 6xHIS tag, LC/MS/MS; format: in vitro ADME
T2 construct: T1 (Gly27-Asn763) Representing the Enzyme Lacking the Membrane Anchoring Region; additional N-terminal Met (N); expressed in transfected cells; cell lysate
T2 sequence (Q16853 27-763): T1 sequence (Q16853 27-763)
Procedure: as §1, §2, §3, §4, §5, §6

Structure (SMILES): NCc1ccccc1 [Benzylamine]
- Benzylamine Remaining (%) ([1]; CHO Flp-In T-Rex lysate, tag One, 0 min): 100%
- Benzylamine Remaining (%) ([1]; CHO Flp-In T-Rex lysate, tag One, 10 min): 104%
- Benzylamine Remaining (%) ([1]; CHO Flp-In T-Rex lysate, tag One, 2 h): 92%
- Benzylamine Remaining (%) ([1]; CHO Flp-In lysate, tag None, 0 min): 100%
- Benzylamine Remaining (%) ([1]; CHO Flp-In lysate, tag None, 10 min): 109%
- Benzylamine Remaining (%) ([1]; CHO Flp-In lysate, tag None, 2 h): 103%
- Benzylamine Remaining (%) ([1]; HEK293 lysate, tag None, 0 min): 100%
- Benzylamine Remaining (%) ([1]; HEK293 lysate, tag None, 10 min): 105%
- Benzylamine Remaining (%) ([1]; HEK293 lysate, tag None, 2 h): 102%
- Benzylamine Remaining (%) ([2]; CHO Flp-In T-Rex lysate, 0 min): 100%
- Benzylamine Remaining (%) ([2]; CHO Flp-In T-Rex lysate, 10 min): 95%
- Benzylamine Remaining (%) ([2]; CHO Flp-In T-Rex lysate, 2 h): 93%
- Benzylamine Remaining (%) ([2]; CHO Flp-In lysate, 0 min): 100%
- Benzylamine Remaining (%) ([2]; CHO Flp-In lysate, 10 min): 101%
- Benzylamine Remaining (%) ([2]; CHO Flp-In lysate, 2 h): 98%
- Benzylamine Remaining (%) ([2]; HEK293 lysate, 0 min): 100%
- Benzylamine Remaining (%) ([2]; HEK293 lysate, 10 min): 111%
- Benzylamine Remaining (%) ([2]; HEK293 lysate, 2 h): 103%
